Assay results published in patent publication EP4603105A1, “PHARMACEUTICAL COMPOSITION CONTAINING CYCLIC COMPOUND HAVING SELECTIVE KRAS INHIBITORY EFFECT AGAINST HRAS AND NRAS” (CHUGAI SEIYAKU KABUSHIKI KAISHA, priority 2022, dated 2024).

Columns and labels:
[1] = target: GDP-bound KRAS wild-type protein (Homo sapiens, UniProt P01116); assay: Binding to KRAS by surface plasmon resonance (SPR), dissociation constant KD
Procedure, shortened: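 SPR, 30°C: Avi-biotin RAS·GDP captured via Biotin CAPture (~100–300 RU); running buffer HBS pH 7.4, 1 mM DTT, 10 mM MgCl2, 0.01% Tween 20, 10 µM GDP, 4% DMSO. Single-cycle kinetics, 100 µL/min, 75 s injections; 1:1 model → KD.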

[2] = target: GDP-bound NRAS wild-type protein (Homo sapiens, UniProt P01111); assay: Binding to NRAS by surface plasmon resonance (SPR), KD and KD ratio to KRAS
Sequence of GDP-bound NRAS wild-type protein (P01111 whole entry): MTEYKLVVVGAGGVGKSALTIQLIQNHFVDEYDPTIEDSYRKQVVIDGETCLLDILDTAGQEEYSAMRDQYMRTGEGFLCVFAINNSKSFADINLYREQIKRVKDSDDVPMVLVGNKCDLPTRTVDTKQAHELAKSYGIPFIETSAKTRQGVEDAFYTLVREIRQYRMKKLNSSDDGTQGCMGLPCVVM
Procedure, shortened: (§1)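 Captured GDP-RAS (~100–300 RU) was exposed to increasing compound concentrations, 75 s per step, in running buffer with 10 µM GDP, 10 mM MgCl2 and 4% DMSO at pH 7.4.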

HRAS wild-type protein = HRAS wild-type protein (Homo sapiens, UniProt P01112); assay: Binding to HRAS by surface plasmon resonance (SPR), KD and KD ratio to KRAS
Sequence of HRAS wild-type protein (P01112 whole entry): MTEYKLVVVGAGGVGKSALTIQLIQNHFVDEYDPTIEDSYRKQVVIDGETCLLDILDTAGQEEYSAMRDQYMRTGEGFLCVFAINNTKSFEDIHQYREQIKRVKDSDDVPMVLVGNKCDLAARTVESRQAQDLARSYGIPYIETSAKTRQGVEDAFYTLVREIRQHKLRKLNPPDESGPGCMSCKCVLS
Procedure, shortened: as §1

[3] = tested on: human lung cancer strain NCI-H441; format: cell-based
Procedure, shortened: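 Step one: dispense the test compound in serial DMSO dilutions. Step three: add the reagent and measure […].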

[4] = Single Cycle Kinetics, 1:1 binding model
[5] = ratio of the KD value with respect to GDP-bound NRAS wild-type protein to the KD value with respect to KRAS
[6] = ratio of the KD value with respect to HRAS wild-type protein to the KD value with respect to KRAS
[7] = ratio of KD for GDP-bound NRAS wild-type protein to KD for KRAS
[8] = ratio of KD for HRAS wild-type protein to KD for KRAS

Sequence of GDP-bound KRAS wild-type protein (P01116 1-188 isoform P01116-2): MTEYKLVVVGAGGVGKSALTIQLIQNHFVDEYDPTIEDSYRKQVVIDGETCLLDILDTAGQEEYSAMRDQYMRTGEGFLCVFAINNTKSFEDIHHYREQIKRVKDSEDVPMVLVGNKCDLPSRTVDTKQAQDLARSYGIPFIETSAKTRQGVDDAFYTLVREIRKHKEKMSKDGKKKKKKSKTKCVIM

| Structure (SMILES) | Kd [1, 4] [nM] | IC50 [3] [nM] | Kd ([1]; Single Cycle Kinetics) [nM] | Kd ([1]; 1:1 binding model) [nM] | NRAS /KRAS [2, 5] | HRAS /KRAS (HRAS wild-type protein; [6]) | NRAS /KRAS [2, 7] | HRAS /KRAS (HRAS wild-type protein; [8]) | NRAS /KRAS ([2]; ratio of KD value for GDP-bound NRAS wild-type protein to KD value for KRAS (SPR)) | HRAS /KRAS (HRAS wild-type protein; ratio of KD value for HRAS wild-type protein to KD value for KRAS (SPR)) |
| --- | --- | --- | --- | --- | --- | --- | --- | --- | --- | --- |
| CCO[C@@H]1C[C@H]2C(=O)NC3(CCC3)C(=O)N(C)[C@@H](C3CCCC3)C(=O)N(C)[C@H](C(=O)N(C)C)CC(=O)N(C)[C@@H](Cc3ccccc3)C(=O)N[C@@H]([C@@H](C)CC)C(=O)N(C)CC(=O)N(C)[C@H]3CCCCCN(C3=O)[C@@H](Cc3ccc(C(F)(F)F)cc3)C(=O)N(C)CC(=O)N[C@@H](CCc3cc(F)c(C(F)(F)F)c(F)c3)C(=O)N2C1 [PP0672] | 0.3 | 19.7 | – | – | B (a compound having 3 or more and less than 10 is denoted as B) | B (a compound having 3 or more and less than 10 is denoted as B) | – | – | – | – |
| CCO[C@@H]1C[C@H]2C(=O)NC3(CC(C)(C)C3)C(=O)N(C)[C@@H](C3CCCC3)C(=O)N(C)[C@H](C(=O)N(C)C)CC(=O)N(C)[C@@H]([C@H](C)OC)C(=O)N[C@@H]([C@@H](C)CC)C(=O)N(C3CC3)CC(=O)N(C)[C@H]3C/C=C\CCN(C3=O)[C@@H](Cc3ccc(C(F)(F)F)cc3)C(=O)N(C)CC(=O)N[C@@H](CCc3ccc(C(F)(F)F)c(Cl)c3)C(=O)N2C1 [PP3177] | – | 21.6 | – | 0.49 | – | – | A (a compound having 10 or more and less than 20 is denoted as A) | A (a compound having 10 or more and less than 20 is denoted as A) | – | – |
| CC[C@H](C)[C@@H]1NC(=O)[C@H](COC)NC(=O)C[C@@H](C(=O)N(C)CC)N(C)C(=O)[C@H](C2CCCC2)N(C)C(=O)C2(CC(C)(C)C2)NC(=O)[C@@H]2C[C@@H](F)CN2C(=O)[C@H](CCc2ccc(C(F)(F)F)c(OC)c2)NC(=O)CN(C)C(=O)[C@H](Cc2ccc(C(F)(F)F)cc2)N2CC/C=C\C[C@@H](C2=O)N(C)C(=O)CN(C)C1=O [PP3137] | – | 23 | – | 0.084 | – | – | A (a compound having 10 or more and less than 20 is denoted as A) | A (a compound having 10 or more and less than 20 is denoted as A) | – | – |
| CCCOC[C@H]1C(=O)N[C@@H]([C@@H](C)CC)C(=O)N(C)CC(=O)N(C)[C@H]2C/C=C\CCN(C2=O)[C@@H](Cc2ccc(C(F)(F)F)cc2)C(=O)N(C)CC(=O)N[C@@H](CCc2ccc(Cl)c(Cl)c2)C(=O)N2C[C@H](OCC)C[C@H]2C(=O)NC2(CCC2)C(=O)N(C)[C@@H](C2CCCC2)C(=O)N(C)[C@H](C(=O)N(C)CCC)CC(=O)N1C [PP2830] | – | 28.8 | – | 0.37 | – | – | A (a compound having 10 or more and less than 20 is denoted as A) | A (a compound having 10 or more and less than 20 is denoted as A) | – | – |
| CCO[C@@H]1C[C@H]2C(=O)NC3(CCC3)C(=O)N(C)[C@@H](C3CCCC3)C(=O)N(C)[C@H](C(=O)N(C)CC)CC(=O)N(C)[C@@H](CC3CCCC3)C(=O)N[C@@H]([C@@H](C)CC)C(=O)N(C)CC(=O)N(C)[C@H]3C/C=C\CCN(C3=O)[C@@H](Cc3ccc(C(F)(F)F)cc3)C(=O)N(C)CC(=O)N[C@@H](CCc3ccc(C(F)(F)F)c(OC)c3)C(=O)N2C1 [PP1573] | 0.12 | 5.2 | – | – | – | – | – | – | A (a compound having 10 or more and less than 20 is denoted as A) | A (a compound having 10 or more and less than 20 is denoted as A) |
| CCO[C@@H]1C[C@H]2C(=O)NC3(CCC3)C(=O)N(C)[C@@H](C3CCCC3)C(=O)N(C)[C@H](C(=O)N3CCOCC3)CC(=O)N(C)[C@@H](CC3CCC3)C(=O)N[C@@H]([C@@H](C)CC)C(=O)N(C)CC(=O)N(C)[C@H]3CCCCCN(C3=O)[C@@H](Cc3ccc(C(F)(F)F)cc3)C(=O)N(C)CC(=O)N[C@@H](CCc3cc(F)c(C(F)(F)F)c(F)c3)C(=O)N2C1 [PP0683] | 0.61 | 44.7 | – | – | B (a compound having 3 or more and less than 10 is denoted as B) | B (a compound having 3 or more and less than 10 is denoted as B) | – | – | – | – |
| CCO[C@@H]1C[C@H]2C(=O)NC3(CC(C)(C)C3)C(=O)N(C)[C@@H](C(CC)CC)C(=O)N(C)[C@H](C(=O)N(C)C)CC(=O)N(C)[C@@H](C(C)C)C(=O)N[C@@H]([C@@H](C)CC)C(=O)N(C)CC(=O)N(C)[C@H]3C/C=C\CCN(C3=O)[C@@H](Cc3ccc(C)cc3)C(=O)N(C)CC(=O)N[C@@H](CCc3ccc(C(F)(F)F)c(Cl)c3)C(=O)N2C1 [PP2158] | 0.79 | 25.4 | – | – | AA (a compound having 20 or more is denoted as AA) | A (a compound having 10 or more and less than 20 is denoted as A) | – | – | – | – |
| CCO[C@@H]1C[C@H]2C(=O)NC3(CCC3)C(=O)N(C)[C@@H](C3CCCC3)C(=O)N(C)[C@H](C(=O)N(C)C)CC(=O)N(C)[C@@H](CC)C(=O)N[C@@H]([C@@H](C)CC)C(=O)N(C)CC(=O)N(C)[C@H]3CCCCN(C3=O)[C@@H](Cc3ccc(C(F)(F)F)cc3)C(=O)N(C)CC(=O)N[C@@H](CCc3ccc4ccsc4c3)C(=O)N2C1 [PP0888] | – | 25.6 | 0.17 | – | – | – | C (A compound having a KD ratio of 0.1 or more and less than 3 is denoted as C) | B (a compound having 3 or more and less than 10 is denoted as B) | – | – |
| CCC(CC)[C@H]1C(=O)N(C)[C@H](C(=O)N(C)C)CC(=O)N(C)[C@@H](COC)C(=O)N[C@@H]([C@@H](C)CC)C(=O)N(C)CC(=O)N(C)[C@H]2C/C=C\CCN(C2=O)[C@@H](Cc2ccc(C)cc2)C(=O)N(C)CC(=O)N[C@@H](CCc2ccc(C(F)(F)F)c(Cl)c2)C(=O)N2CCCCC[C@H]2C(=O)NC2(CC(C)(C)C2)C(=O)N1C [PP2966] | – | 29.3 | – | 0.57 | – | – | A (a compound having 10 or more and less than 20 is denoted as A) | A (a compound having 10 or more and less than 20 is denoted as A) | – | – |

More lines, in order of falling IC50 [3], values ahead:

| Kd [1, 4] [nM] | IC50 [3] [nM] | Kd ([1]; Single Cycle Kinetics) [nM] | Kd ([1]; 1:1 binding model) [nM] | Structure (SMILES) | NRAS /KRAS [2, 5] | HRAS /KRAS (HRAS wild-type protein; [6]) | NRAS /KRAS [2, 7] | HRAS /KRAS (HRAS wild-type protein; [8]) | NRAS /KRAS ([2]; ratio of KD value for GDP-bound NRAS wild-type protein to KD value for KRAS (SPR)) | HRAS /KRAS (HRAS wild-type protein; ratio of KD value for HRAS wild-type protein to KD value for KRAS (SPR)) |
| --- | --- | --- | --- | --- | --- | --- | --- | --- | --- | --- |
| – | 114 | 0.84 | – | CCO[C@@H]1C[C@H]2C(=O)NC3(CCC3)C(=O)N(C)[C@@H](C3CCCC3)C(=O)N(C)[C@H](C(=O)N3CCOCC3)CC(=O)N(C)[C@@H](Cc3cscn3)C(=O)N[C@@H]([C@@H](C)CC)C(=O)N(C)CC(=O)N(C)[C@H]3CCCCCN(C3=O)[C@@H](Cc3ccc(C(F)(F)F)cc3)C(=O)N(C)CC(=O)N[C@@H](CCc3cc(F)c(C(F)(F)F)c(F)c3)C(=O)N2C1 [PP0855] | – | – | B (a compound having 3 or more and less than 10 is denoted as B) | B (a compound having 3 or more and less than 10 is denoted as B) | – | – |
| – | 104 | – | 1.1 | CCC(CC)[C@H]1C(=O)N(C)[C@H](C(=O)N(C)C)CC(=O)N(C)[C@@H](COC)C(=O)N[C@@H]([C@@H](C)CC)C(=O)N(C)CC(=O)N(C)[C@H]2C/C=C\CCN(C2=O)[C@@H](Cc2ccc(C)cc2)C(=O)N(C)CC(=O)N[C@@H](CCc2ccc(C(F)(F)F)c(OC)c2)C(=O)N2CCOC[C@H]2C(=O)NC2(CC(C)(C)C2)C(=O)N1C [PP2938] | – | – | AA (a compound having 20 or more is denoted as AA) | A (a compound having 10 or more and less than 20 is denoted as A) | – | – |
| 3.3 | 91.9 | – | – | CCC[C@H]1C(=O)N[C@@H](C2CCCC2)C(=O)N(C)CC(=O)N(C)[C@H]2C/C=C\CCN(C2=O)[C@@H](Cc2ccc(C)cc2)C(=O)N(C)CC(=O)N[C@@H](CCc2ccc(C(F)(F)F)c(Cl)c2)C(=O)N2C[C@H](OCC)C[C@H]2C(=O)NC2(CC(C)(C)C2)C(=O)N(C)[C@@H](CC(F)(F)F)C(=O)N(C)[C@H](C(=O)N(C)C)CC(=O)N1C [PP2192] | A (a compound having 10 or more and less than 20 is denoted as A) | A (a compound having 10 or more and less than 20 is denoted as A) | – | – | – | – |
| – | 66.7 | 0.96 | – | CCO[C@@H]1C[C@H]2C(=O)NC3(CCC3)C(=O)N(C)[C@@H](C3CCCC3)C(=O)N(C)[C@H](C(=O)N3CCOCC3)CC(=O)N(C)[C@@H](Cc3cccc(F)c3)C(=O)N[C@@H]([C@@H](C)CC)C(=O)N(C)CC(=O)N(C)[C@H]3CCCCCN(C3=O)[C@@H](Cc3ccc(C(F)(F)F)cc3)C(=O)N(C)CC(=O)N[C@@H](CCc3cc(F)c(C(F)(F)F)c(F)c3)C(=O)N2C1 [PP0856] | – | – | B (a compound having 3 or more and less than 10 is denoted as B) | B (a compound having 3 or more and less than 10 is denoted as B) | – | – |
| – | 19.1 | – | 0.32 | CCC[C@H]1C(=O)N[C@@H](C2CCCCC2)C(=O)N(C)CC(=O)N(C)[C@H]2C/C=C\CCN(C2=O)[C@@H](Cc2ccc(C)cc2)C(=O)N(C)CC(=O)N[C@@H](CCc2ccc(C(F)(F)F)c(Cl)c2)C(=O)N2C[C@H](OCC)C[C@H]2C(=O)NC2(CC(C)(C)C2)C(=O)N(C)[C@@H](CC(C)(C)C)C(=O)N(C)[C@H](C(=O)N(C)C)CC(=O)N1C [PP3018] | – | – | A (a compound having 10 or more and less than 20 is denoted as A) | B (a compound having 3 or more and less than 10 is denoted as B) | – | – |
| 0.095 | 6.5 | – | – | CC[C@H](C)[C@@H]1NC(=O)[C@H](CC(C)C)N(C)C(=O)C[C@@H](C(=O)N2CCOCC2)N(C)C(=O)[C@H](C2CCCC2)N(C)C(=O)C2(CCCC2)NC(=O)[C@@H]2CCCN2C(=O)[C@H](CCc2ccc(C(F)(F)F)c(Cl)c2)NC(=O)CN(C)C(=O)[C@H](Cc2ccccc2)N2CCCC[C@@H](C2=O)N(C)C(=O)CN(C)C1=O [PP0529] | C (A compound having a KD ratio of 0.1 or more and less than 3 is denoted as C) | B (a compound having 3 or more and less than 10 is denoted as B) | – | – | – | – |
